As a reminder, the IC50 is the point on the concentration scale where inhibition reaches its midpoint. Low readings indicate greater potency, high ones weaker potency.

The experiment addresses T1, CRTH2 (Homo sapiens, UniProt Q9Y5Y4).
T1 construct: polymorphonuclear cells (0.5 ml; 10^6/ml cells) in PBS containing 0.9 mM CaCl2 and 0.5 mM MgCl2; endogenous in cells; host or cells: polymorphonuclear cells (eosinophils gated by flow cytometry)
T1 sequence (Q9Y5Y4 1-395): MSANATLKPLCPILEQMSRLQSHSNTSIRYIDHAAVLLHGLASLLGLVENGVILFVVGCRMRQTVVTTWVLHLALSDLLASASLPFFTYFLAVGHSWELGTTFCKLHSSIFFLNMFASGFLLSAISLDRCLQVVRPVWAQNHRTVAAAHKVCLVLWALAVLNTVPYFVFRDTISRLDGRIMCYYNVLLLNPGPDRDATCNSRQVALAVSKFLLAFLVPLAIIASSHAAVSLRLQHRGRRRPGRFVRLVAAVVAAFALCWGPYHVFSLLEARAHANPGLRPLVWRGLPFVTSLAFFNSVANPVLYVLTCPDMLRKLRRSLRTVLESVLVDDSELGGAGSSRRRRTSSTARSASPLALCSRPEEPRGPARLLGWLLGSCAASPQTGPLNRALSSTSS
The experiment can be described thus: DPBS CD11b Antagonist Assay. The class given is cell-based. Conditions: polymorphonuclear cells in PBS, eosinophil CD11b expression, challenge with 15R-Methyl-PGD2 (10 nM). On the procedure:
DPBS CD11b Antagonist Assay. The potential CRTH2 antagonist activity of certain compounds was tested using a CD11b expression assay using essentially the method described by Monneret et al. (J Pharmacol Exp Ther 304:349-55, 2003). Briefly, polymorphonuclear cells (0.5 ml; 10^6/ml cells) in PBS containing 0.9 mM CaCl2 and 0.5 mM MgCl2) were preincubated with various concentrations of test compounds at room temperature for 10 minutes before they were challenged with the agonist 15R-Methyl-PGD2 (10 nM). The incubations were terminated by the addition of ice-cold FACSFlow (BD Biosciences; Cat# 342003) and centrifugation (400 g for 5 minutes at 4° C.). The cells were then incubated for 30 minutes at 4° C. with a mixture of PE-labeled mouse anti-human VLA-4 (5 μl; BD Biosciences) and FITC-labeled mouse anti-human CD11b (10 μl; Beckman Coulter). The cells were then incubated with Optilyse C (0.25 ml; Beckman Coulter) for 15 minutes, centrifuged, and then fixed in PBS (0.4 ml; calcium and magnesium free) containing 1% formaldehyde. The distribution of fluorescence intensities among 60,000 cells was measured by flow cytometry. Eosinophils were gated out on the basis of their granularity (high side scatter) and labeling with VLA-4 (PE fluorescence). CD11b was then measured in the eosinophil region on the basis of fluorescence due to FITC. All data were corrected for the value obtained for the corresponding isotope control antibody.
For the compound `COC(=O)Cn1c(C)c(Cc2ccccc2S(=O)(=O)N2CCCC2)c2c1CC(C)(C)CC2=O` [Example I-58, Methyl 2-(2,6,6-trimethyl-4-oxo-3-(2-(pyrrolidin-1-ylsulfonyl)benzyl)-4,5,6,7-tetrahydro-1H-indol-1-yl)acetate], the IC50 was 5 to 100 nM. `Cc1c(Cc2ccccc2S(=O)(=O)N2CCOCC2)c2c(n1CC(=O)O)CC(C)(C)CC2` [Example I-26, 2-(2,6,6-trimethyl-3-(2-(morpholinosulfonyl)benzyl)-4,5,6,7-tetrahydro-1H-indol-1-yl)acetic acid]: the IC50 was less than 5 nM. With `Cc1c(Cc2ccccc2S(=O)(=O)N2CCCC2)c2c(n1CC(=O)O)CCCC2=O` [Example I-77, 2-(2-methyl-4-oxo-3-(2-(pyrrolidin-1-ylsulfonyl)benzyl)-4,5,6,7-tetrahydro-1H-indol-1-yl)acetic acid], the IC50 was less than 5 nM. Consider `Cc1c(Cc2ccccc2S(=O)(=O)N2CCCC2)c2c(n1CC(=O)O)CC(C)(C)C(C)(C)C2=O` [Example I-95, 2-(2,5,5,6,6-pentamethyl-4-oxo-3-(2-(pyrrolidin-1-ylsulfonyl)benzyl)-4,5,6,7-tetrahydro-1H-indol-1-yl)acetic acid], for which the IC50 is less than 5 nM. With `Cc1c(Cc2ccccc2S(=O)(=O)c2cccs2)c2c(n1CC(=O)O)CC(C)(C)CC2=O` [Example I-81, 2-(2,6,6-trimethyl-4-oxo-3-(2-(thiophen-2-ylsulfonyl)benzyl)-4,5,6,7-tetrahydro-1H-indol-1-yl)acetic acid], the half-maximal inhibitory concentration (IC50) was less than 5 nM. `CCOC(=O)Cn1c(C)c(Sc2ccc(Br)cc2S(=O)(=O)N2CCCC2)c2c1CC(C)(C)CC2=O` [Example I-53, ethyl 2-(3-(4-bromo-2-(pyrrolidin-1-ylsulfonyl)phenylthio)-2,6,6-trimethyl-4-oxo-4,5,6,7-tetrahydro-1H-indol-1-yl)acetate] gave an IC50 of more than 500 nM. As for `CCOC(=O)Cn1c(C)c(Cc2ccccc2S(=O)(=O)N(C)c2ccccc2)c2c1CC(C)(C)CC2=O` [Example I-66, ethyl 2-(2,6,6-trimethyl-3-(2-(N-methyl-N-phenylsulfamoyl)benzyl)-4-oxo-4,5,6,7-tetrahydro-1H-indol-1-yl)acetate], the IC50 lay within 5 to 100 nM. The compound `Cc1c(Cc2ccccc2S(=O)(=O)N2CCOCC2)c2c(n1[C@H](C)C(=O)O)CCC(C)(C)C2` [Example I-35, (R)-2-(2,5,5-trimethyl-3-(2-(morpholinosulfonyl)benzyl)-4,5,6,7-tetrahydro-1H-indol-1-yl)propanoic acid] had an IC50 of less than 5 nM. Next, `Cc1c(Cc2ccccc2S(=O)(=O)C2CCCCC2)c2c(n1CC(=O)O)CC(C)(C)CC2=O` [Example I-82, 2-(3-(2-(cyclohexylsulfonyl)benzyl)-2,6,6-trimethyl-4-oxo-4,5,6,7-tetrahydro-1H-indol-1-yl)acetic acid]: less than 5 nM; `Cc1c(Cc2ccccc2S(=O)(=O)N2CCCC2)c2c(n1CC(N)=O)CC(C)(C)CC2=O` [Example I-84, 2-(2,6,6-trimethyl-4-oxo-3-(2-(pyrrolidin-1-ylsulfonyl)benzyl)-4,5,6,7-tetrahydro-1H-indol-1-yl)acetamide]: more than 500 nM. Next, `Cc1c(Cc2ccc(S(=O)(=O)N(C)C)cc2)c2c(n1CC(=O)O)CCC(C)(C)C2` [Example I-18, 2-(3-(4-(N,N-Dimethylsulfamoyl)benzyl)-2,5,5-trimethyl-4,5,6,7-tetrahydro-1H-indol-1-yl)acetic acid]: less than 5 nM. Compound `CCOC(=O)Cn1c(C)c(Cc2ccccc2S(=O)(=O)N2CCOCC2)c2c1CC(C)(C)CC2=O` [Example I-56, ethyl 2-(2,6,6-trimethyl-3-(2-(morpholinosulfonyl)benzyl)-4-oxo-4,5,6,7-tetrahydro-1H-indol-1-yl)acetate] registered a concentration for half-maximal inhibition (IC50) of 100 to 500 nM.

`CCOC(=O)Cn1c(C)c(Sc2ccc(C)cc2S(=O)(=O)N2CCCC2)c2c1CC(C)(C)CC2=O` [Example I-54, ethyl 2-(2,6,6-trimethyl-3-(4-methyl-2-(pyrrolidin-1-ylsulfonyl)phenylthio)-4-oxo-4,5,6,7-tetrahydro-1H-indol-1-yl)acetate]: the IC50 fell in the range of 100 to 500 nM. Under `Cc1c(S(=O)(=O)N(C)c2ccccc2)c2c(n1CC(=O)O)CC(C)(C)CC2=O` [Example I-75, 2-(2,6,6-trimethyl-3-(N-methyl-N-phenylsulfamoyl)-4-oxo-4,5,6,7-tetrahydro-1H-indol-1-yl)acetic acid] stands more than 500 nM.

Compound `Cc1c(C(O)c2ccccc2S(=O)(=O)N2CCCC2)c2c(n1CC(=O)O)CC(C)(C)CC2=O` (centres unmarked) [Example I-50, 2-(3-(hydroxy(2-(pyrrolidin-1-ylsulfonyl)phenyl)methyl)-2,6,6-trimethyl-4-oxo-4,5,6,7-tetrahydro-1H-indol-1-yl)acetic acid] showed an IC50 of more than 500 nM. `Cc1c(Cc2ccccc2S(=O)(=O)N(C)C)c2c(n1CC(=O)O)CC(C)(C)CC2=O` [Example I-52, 2-(3-(2-(N,N-dimethylsulfamoyl)benzyl)-2,6,6-trimethyl-4-oxo-4,5,6,7-tetrahydro-1H-indol-1-yl)acetic acid] had an IC50 of less than 5 nM. Under `CCOC(=O)Cn1c(C)c(Sc2ccc(F)cc2S(=O)(=O)N2CCCC2)c2c1CC(C)(C)CC2=O` [Example I-57, Ethyl 2-(3-(4-fluoro-2-(pyrrolidin-1-ylsulfonyl)phenylthio)-2,6,6-trimethyl-4-oxo-4,5,6,7-tetrahydro-1H-indol-1-yl)acetate] stands 5 to 100 nM.

In the case of `Cc1c(Cc2ccccc2S(=O)(=O)N2CCCC2)c2c(n1CC(=O)OCCN1CCOCC1)CC(C)(C)CC2=O` [Example I-62, 2-morpholinoethyl 2-(2,6,6-trimethyl-4-oxo-3-(2-(pyrrolidin-1-ylsulfonyl)benzyl)-4,5,6,7-tetrahydro-1H-indol-1-yl)acetate], the IC50 is less than 5 nM. Regarding `Cc1c(Cc2ccccc2S(=O)(=O)N2CCOCC2)c2c(n1CC(=O)OC(C)C)CC(C)(C)CC2=O` [Example I-60, isopropyl 2-(2,6,6-trimethyl-3-(2-(morpholinosulfonyl)benzyl)-4-oxo-4,5,6,7-tetrahydro-1H-indol-1-yl)acetate], the IC50 is more than 500 nM. Consider `CCOC(=O)Cn1c(C)c(Cc2ccccc2S(=O)(=O)N2CCOCC2)c2c1CCC(C)(C)C2` [Example I-25, Ethyl 2-(2,5,5-trimethyl-3-(2-(morpholinosulfonyl)benzyl)-4,5,6,7-tetrahydro-1H-indol-1-yl)acetate], for which the IC50 lay within 100 to 500 nM. `Cc1c(Sc2ccc(S(=O)(=O)N3CCOCC3)cc2)c2c(n1CC(=O)O)CCC(C)(C)C2` [Example I-37, 2-(2,5,5-trimethyl-3-(4-(morpholinosulfonyl)phenylthio)-4,5,6,7-tetrahydro-1H-indol-1-yl)acetic acid] gave an IC50 of less than 5 nM. In turn, `Cc1c(Cc2ccc(S(=O)(=O)NC3CC3)cc2)c2c(n1CC(=O)O)CCC(C)(C)C2` [Example I-15, 2-(3-(4-(N-Cyclopropylsulfamoyl)benzyl)-2,5,5-trimethyl-4,5,6,7-tetrahydro-1H-indol-1-yl)acetic acid] registered an IC50 of less than 5 nM. `Cc1c(Cc2ccccc2S(=O)(=O)N2CCCC2)c2c(n1CC(=O)O)CC(C)(C)C(F)(F)C2=O` [Example I-96, 2-(5,5-difluoro-2,6,6-trimethyl-4-oxo-3-(2-(pyrrolidin-1-ylsulfonyl)benzyl)-4,5,6,7-tetrahydro-1H-indol-1-yl)acetic acid] returned an IC50 of less than 5 nM.

On to `Cc1c(Cc2cccc(S(=O)(=O)N3CCOCC3)c2)c2c(n1CC(=O)O)CCC(C)(C)C2` [Example I-27, 2-(2,5,5-trimethyl-3-(3-(morpholinosulfonyl)benzyl)-4,5,6,7-tetrahydro-1H-indol-1-yl)acetic acid], for which the IC50 lay within 5 to 100 nM. With `COC(=O)Cn1c(C)c(Cc2ccccc2S(=O)(=O)N2CCOCC2)c2c1CC(C)(C)CC2=O` [Example I-59, methyl 2-(2,6,6-trimethyl-3-(2-(morpholinosulfonyl)benzyl)-4-oxo-4,5,6,7-tetrahydro-1H-indol-1-yl)acetate], the IC50 fell in the range of 5 to 100 nM.

`Cc1c(Cc2ccc(S(=O)(=O)N3CCCCCC3)cc2)c2c(n1CC(=O)O)CCC(C)(C)C2` [Example I-16, 2-(3-(4-(Azepan-1-ylsulfonyl)benzyl)-2,5,5-trimethyl-4,5,6,7-tetrahydro-1H-indol-1-yl)acetic acid] gave an IC50 of 5 to 100 nM.

Source of the values: patent US20110312945A1, “CRTH2 MODULATORS” (priority 2008, published 2011).
